Patent publication US5474757A, “Prevention of acetaminophen overdose toxicity with organosulfur compounds” (priority 1992, dated 1995)

Key:
[1] = tested on: hepatotoxicity of N-nitrosodimethylamine; conditions: pre-treatment of rats; cited from earlier work
P-450 2E1 [2] = conditions: treatment of rats; cited from earlier work
[3] = tested on: carbon tetrachloride hepatotoxicity; conditions: cited from earlier work
[4] = tested on: 1,2-dimethylhydrazine-induced hepatotoxicity and carcinogenesis; conditions: rats; cited from earlier work
P-450 2E1 [5] = conditions: isolated rat liver microsomes; cited from earlier work
[6] = tested on: acetaminophen-induced hepatotoxicity; experiment: animal or person; conditions: for GPT / LDH / Survival / Extent of liver damage: 25 mg/kg oral
Text: Blood samples were obtained from the jugular vein of CO2 -anesthetizedanimals. The blood was allowed to clot at room temperature and serum was separated by centrifugation. […] Biochem. Biophys.
Randomly-selected samples of the major hepatic lobe were fixed in 10% buffered formalin for histological evaluation. Samples were subsequently embedded in Paraplast (Fisher Scientific) and sectioned at 6 μm on a rotary microtome. Tissue sections were stained with hematoxylin-eosine-phloxine for examination. Extent of tissue damage was determined using a Presage CV-6 Image Analysis System (Advanced Imaging Concepts, Inc.). Images of randomly-selected slides (3 slides/animal, 2-3 animals/group) containing full cross sections of the major hepatic lobe were projected onto a computer screen and the image captured. The areas of damage were then outlined on the screen and the areas quantated using interactive software. The area of damage was shown as a percentage of the total hepatic area for each section. All determinations were made without knowledge of treatment group.
Data were analyzed by the Newman-Keuls multiple comparison procedure on the rank score analysis.
All experiments were replicated at least once.
As a Comparative Example, 300 mg/kg N-acetylcysteine was also administered immediately after administration of 0.2 g/kg acetaminophen.
As a Comparative Example, 300 mg/kg N-acetylcysteine was also administered 1 hour after administration of 0.2 g/kg acetaminophen.

[7] = tested on: p-nitrophenol hydroxylase; conditions: isolated rat liver microsomes; cited from earlier work
[8] = tested on: acetaminophen-induced hepatotoxicity; experiment: Protective effect against acetaminophen overdose in rats (serum GPT, LDH, liver damage); assay type: in vivo, rat (male Fisher 344)
Protocol: Brady et al., "Effect of […] […] Biochem. […] Extent of tissue damage was determined using a […]-6 Image Analysis System (Advanced Imaging Concepts, Inc.). […] All determinations were made without knowledge of treatment group. […] All experiments were replicated at least once.

[9] = immediately (0 min) after APAP 0.2 g/kg
[10] = 50 mg/kg oral, 1 hour after APAP 0.4 g/kg, mean ± SD of five rats

For C=CCSCC=C [DAS, diallyl sulfide], the “inhibition of hepatotoxicity of N-nitrosodimethylamine” value [1] is listed as “inhibited the hepatotoxicity”, the “liver microsomal P-450 2E1-dependent (NDMA demethylase) activity” value (P-450 2E1 [2]) is listed as “decreased” and the “inhibition of hepatotoxicity of CCl4” value ([3]; pre-treatment of rats) is listed as “inhibited the hepatotoxicity”. The “protection against carbon tetrachloride hepatotoxicity” value ([3]; rat, in vivo) was “protect toxicity associated with carbon tetrachloride hepatotoxicity”, the “protection against 1,2-dimethylhydrazine-induced hepatotoxicity and carcinogenesis” value [4] was “protect toxicity” and the “inhibition of P-450 2E1-catalyzed NDMA demethylase” value (P-450 2E1 [5]) was “competitively”. For the same compound, the GPT ([6]; 20 min after APAP 0.2 g/kg) was 158 ± 41 U/L, the LDH ([6]; 20 min after APAP 0.2 g/kg) was 2374 ± 3533 U/L and the Survival ([6]; 20 min after APAP 0.2 g/kg) was 5/5. The “Extent of liver damage” value ([6]; 1 hour after APAP 0.2 g/kg) was 16-39%, the GPT ([6]; 1 hour after APAP 0.2 g/kg) was 179 ± 2 U/L and the LDH ([6]; 1 hour after APAP 0.2 g/kg) was 15609 ± 7143 U/L. For the same compound, the Survival ([6]; 1 hour after APAP 0.2 g/kg) was 3/5, the “Extent of liver damage” value [6, 9] was 8-17% and the GPT [6, 9] was 143 ± 50 U/L. The LDH [6, 9] was 1899 ± 1724 U/L, the Survival [6, 9] was 5/5 and the “protection against acetaminophen toxicity” value ([6]; 25 mg/kg, immediately after acetaminophen, mice) was “although preventing the elevation of the LDH level, only partially prevented liver damage and had little or no effect on the elevated serum GPT level”. The minimal effective dose ([6]; Mus musculus, read-out: low dose at which protective effect was demonstrated) was 5 mg/kg, the “inhibition of p-nitrophenol hydroxylase” value [7] was “competitively” and the “Extent of liver damage” value ([8]; 50 mg/kg oral, 1 hour after APAP 0.4 g/kg) was 5-13%. For the same compound, the GPT [8, 10] was 70 ± 13 U/L, the LDH [8, 10] was 220 ± 82 U/L and the protection against hepatotoxicity ([8]; 50 mg/kg, 1 hr after APAP, rats) was “prevented the elevation of serum GPT and LDH levels, but did not completely prevent liver damage”. It also gave a minimal effective dose ([8]; Rattus norvegicus, rats, read-out: low dose at which protective effect was demonstrated) of 5 mg/kg.
